Reference: patent US20260365671A1, “HETEROCYCLIC COMPOUND” (Takeda Pharmaceutical Company Limited, priority 2022, published 2026)

Legend:
NLRP3 inflammasome = molecular target: T1, NLRP3 inflammasome (Homo sapiens, UniProt Q96P20); experiment: IL-1β TR-FRET assay (THP-1 cells differentiated to macrophages with IFN-γ, LPS primed, ATP activated; HTRF); format: cell-based; conditions: THP-1 macrophages, 50 ng/mL LPS priming, compound 30 min, 20 mM ATP 2 hours
T1 construct: IL-1beta HTRF
Method: (§1) The biological activity of Compound (I) with respect to NLRP3 was determined using the following in vitro methods.
IL-1β TR-FRET Assay (Reported as IC50)
Monocytic THP-1 cells (ATCC: TIB-202) were maintained in accordance with the provider's instructions in RPMI media (Life Technologies, Cat #A10491-01); RPMI was supplemented with 10% heat inactivated fetal bovine serum (Corning, Cat #35-010-CV). The cells were differentiated into macrophages by the addition of 25 ng/mL IFN-γ (PeproTech, Cat #AF300-02-100UG) for 24 hours at 37 °C/5% CO2. Media was exchanged with fresh media with no FBS, and the cells were treated with 50 ng/mL LPS (priming step) (LPS-EK: Invivogen, Cat #tlrl-peklps). The cells were plated at 240,000 cells per well in 384-well flat-bottom cell culture plates (FALCON, Cat #353962) and were incubated for 24 hours at 37 °C/5% CO2. Compounds were serially diluted (half log dilutions) with DMSO and were finally diluted with Media with no FBS. The compounds were added to the cells in 384-well plates (added in 1:3) and then the plates were incubated for 30 minutes at 37 °C/5% CO2. The NLRP3 inflammasome was activated with the addition of 20 mM ATP (Sigma Cat #A3377-25G) and the cells were incubated for 2 hours at 37 °C/5% CO2. At the end of the incubation period, 30 μL supernatant was transferred to another 384-well plate and mixed on a plate shaker for 1 minutes. The supernatant was mixed with HTRF Antibody (Human IL1 beta kit, Cisbio, 62HIL1BPEH) in assay plates (Greiner Bio-One, Cat #784075) and the assay plates were incubated in shading box at room temperature for 16-24 hours. HTRF signal was measured by EnVision (Perkinelmer) in accordance with the manufacturer's instructions.
(§2) The IC50 values were calculated from a plot of percentage of inhibition versus the inhibitor concentration by a logistics curve fit according to: Y=[Bottom+(Top−Bottom)]/(1+10^[(Log IC50−X)·Hill Slope], where Y is the % inhibition at the inhibitor concentration, X, “Bottom” is the lowest inhibition value, i.e., 0%, “Top” is the maximum inhibition value, i.e., 100%, and the “Hill Slope” describes the slope of the sigmoidal curve between the “Bottom” and “Top” values. The curve fitting was conducted with XLfit (ver. 5.5.0.5, ID Business Solutions Limited) or internally developed software.
(§3) Table 2 lists in vitro biological assay data (IL-1β and TNF-α) for the compounds shown in the examples. These assays are described in the section entitled Biological Activity, above.

NF-κB pathway = experiment: TNF-α assay (THP-1 cells differentiated to macrophages with IFN-γ, NF-κB pathway activated with LPS; ELISA); format: cell-based, Human; conditions: Homo sapiens, THP-1, THP-1 macrophages, compound 30 min, 50 ng/mL LPS 3 hours
Method: as §1
TNF-α Assay (Reported as IC50)
Monocytic THP-1 cells (ATCC: TIB-202) were maintained in accordance with the provider's instructions in RPMI media (Life Technologies, Cat #A10491-01); RPMI was supplemented with 10% heat inactivated fetal bovine serum (Hyclone Cat #SH30396.03). The cells were differentiated into macrophages by the addition of 25 ng/mL IFN-γ for 24 hours at 37 °C/5% CO2. Media was exchanged with fresh media with no FBS. The cells were plated at 40,000 cells per well in 384-well flat-bottom cell culture plates (Costar 3764) containing compounds (added in 1:1000) in a 1:3.16 serial dilution series in DMSO and were incubated for 30 minutes at 37 °C/5% CO2. The NF-κB pathway was activated with the addition of 50 ng/mL LPS and the cells were incubated for 3 hours at 37 °C/5% CO2. At the end of the incubation period, supernatant ([…]) was removed, and […] were monitored using an ELISA (Human TNF-α ELISA, R&D systems, Cat #DY210) according to the manufacturer's instructions.
as §2, §3

T1 sequence (Q96P20 whole entry): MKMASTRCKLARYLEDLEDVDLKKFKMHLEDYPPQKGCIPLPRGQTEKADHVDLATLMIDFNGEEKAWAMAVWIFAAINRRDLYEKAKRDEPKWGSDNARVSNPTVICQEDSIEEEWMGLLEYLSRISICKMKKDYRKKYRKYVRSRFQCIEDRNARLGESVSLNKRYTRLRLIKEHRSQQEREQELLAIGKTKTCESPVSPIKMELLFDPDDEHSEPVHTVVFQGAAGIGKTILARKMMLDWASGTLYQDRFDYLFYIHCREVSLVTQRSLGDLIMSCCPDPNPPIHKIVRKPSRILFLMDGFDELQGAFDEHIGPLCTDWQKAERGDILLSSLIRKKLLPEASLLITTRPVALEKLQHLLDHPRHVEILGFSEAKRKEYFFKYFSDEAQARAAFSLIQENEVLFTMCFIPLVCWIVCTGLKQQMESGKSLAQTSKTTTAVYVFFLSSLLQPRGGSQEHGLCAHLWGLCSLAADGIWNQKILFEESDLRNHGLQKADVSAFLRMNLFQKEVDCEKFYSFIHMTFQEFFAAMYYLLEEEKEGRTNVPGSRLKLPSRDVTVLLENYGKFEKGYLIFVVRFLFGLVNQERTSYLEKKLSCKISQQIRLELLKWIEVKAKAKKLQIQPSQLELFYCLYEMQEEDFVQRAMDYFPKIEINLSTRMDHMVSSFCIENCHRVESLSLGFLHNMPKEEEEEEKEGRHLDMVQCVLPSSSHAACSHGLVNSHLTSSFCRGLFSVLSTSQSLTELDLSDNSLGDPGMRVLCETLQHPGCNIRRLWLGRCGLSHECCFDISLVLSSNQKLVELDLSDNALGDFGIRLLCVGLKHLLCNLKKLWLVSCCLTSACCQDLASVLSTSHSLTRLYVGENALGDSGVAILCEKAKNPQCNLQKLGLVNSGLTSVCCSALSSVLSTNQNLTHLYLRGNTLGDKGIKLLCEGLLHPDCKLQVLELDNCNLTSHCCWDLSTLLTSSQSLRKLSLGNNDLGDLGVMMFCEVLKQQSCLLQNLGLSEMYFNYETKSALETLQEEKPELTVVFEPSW

Structure (SMILES)	IC50 (NLRP3 inflammasome)	IC50 (NF-κB pathway)
CN1C[C@H](F)C[C@@H](Nc2nc3nn(-c4c(O)cccc4Cl)cc3s2)C1 [Example 8, 3-chloro-2-(5-{[(3R,5R)-5-fluoro-1-methylpiperidin-3-yl]amino}-2H-pyrazolo[3,4-d][1,3]thiazol-2-yl)phenol]	290 nM	> 30000 nM
Cc1cc(Cl)cc(O)c1-n1cc2sc(N[C@@H]3C[C@@H](F)CN(C)C3)nc2n1 [Example 9, 5-chloro-2-(5-{[(3R,5R)-5-fluoro-1-methylpiperidin-3-yl]amino}-2H-pyrazolo[3,4-d][1,3]thiazol-2-yl)-3-methylphenol]	14 nM	> 30000 nM
Cc1cc(O)c(-n2cc3sc(N[C@@H]4C[C@@H](F)CN(C)C4)nc3n2)c(Cl)c1 [Example 11, 3-chloro-2-(5-{[(3R,5R)-5-fluoro-1-methylpiperidin-3-yl]amino}-2H-pyrazolo[3,4-d][1,3]thiazol-2-yl)-5-methylphenol]	37 nM	> 30000 nM
Cc1cc(F)cc(O)c1-n1cc2sc(N[C@@H]3CCCN(C4CC4)C3)nc2n1 [Example 12, 2-(5-{[(3R)-1-cyclopropylpiperidin-3-yl]amino}-2H-pyrazolo[3,4-d][1,3]thiazol-2-yl)-5-fluoro-3-methylphenol]	3.6 nM	> 10000 nM
Cc1cc(C(F)F)cc(O)c1-n1cc2sc(N[C@@H]3C[C@@H](F)CN(C)C3)nc2n1 [Example 13, 5-(difluoromethyl)-2-(5-{[(3R,5R)-5-fluoro-1-methylpiperidin-3-yl]amino}-2H-pyrazolo[3,4-d][1,3]thiazol-2-yl)-3-methylphenol]	25 nM	> 30000 nM
CCN1C[C@H](F)C[C@@H](Nc2nc3nn(-c4c(C)cc(C(F)F)cc4O)cc3s2)C1 [Example 16, 5-(difluoromethyl)-2-(5-{[(3R,5R)-1-ethyl-5-fluoropiperidin-3-yl]amino}-2H-pyrazolo[3,4-d][1,3]thiazol-2-yl)-3-methylphenol]	11 nM	> 30000 nM
CN1C[C@H](F)C[C@@H](Nc2nc3nn(-c4c(O)cc(F)cc4Cl)cc3s2)C1 [Example 17, 3-chloro-5-fluoro-2-(5-{[(3R,5R)-5-fluoro-1-methylpiperidin-3-yl]amino}-2H-pyrazolo[3,4-d][1,3]thi-azol-2-yl)phenol]	110 nM	> 30000 nM
Oc1cc(F)cc(Cl)c1-n1cc2sc(N[C@@H]3CCCN(C4CC4)C3)nc2n1 [Example 18, 3-chloro-2-(5-{[(3R)-1-cyclopropyl-piperidin-3-yl]amino}-2H-pyrazolo[3,4-d][1,3]thiazol-2-yl)-5-fluorophenol]	11 nM	> 30000 nM
CO[C@H]1C[C@@H](Nc2nc3nn(-c4c(C)cc(C)cc4O)cc3s2)CN(C)C1 [Example 19, 2-(5-{[(3R,5S)-5-methoxy-1-methylpiperidin-3-yl]amino}-2H-pyrazolo[3,4-d][1,3]thiazol-2-yl)-3,5-dimethylphenol]	5400 nM	> 30000 nM
CCc1cc(C)cc(O)c1-n1cc2sc(N[C@@H]3C[C@@H](F)CN(C)C3)nc2n1 [Example 20, 3-ethyl-2-(5-{[(3R,5R)-5-fluoro-1-methylpiperidin-3-yl]amino}-2H-pyrazolo[3,4-d][1,3]thiazol-2-yl)-5-methylphenol]	9.2 nM	> 30000 nM
CCN1C[C@H](F)C[C@@H](Nc2nc3nn(-c4c(O)cc(F)cc4C(F)F)cc3s2)C1 [Example 24, 3-(difluoromethyl)-2-(5-{[(3R,5R)-1-ethyl-5-fluoropiperidin-3-yl]amino}-2H-pyrazolo[3,4-d][1,3]thiazol-2-yl)-5-fluorophenol]	16 nM	> 10000 nM
Cc1cc(C)c(-n2cc3sc(N[C@H]4CC[C@H](O)CC4)nc3n2)c(O)c1 [Example 25, 2-{5-[(trans-4-hydroxycyclo-hexyl)amino]-2H-pyrazolo[3,4-d][1,3]thiazol-2-yl}-3,5-dimethylphenol]	350 nM	> 10000 nM
Cc1cc(C)c(-n2cc3sc(N[C@H]4CC[C@@H](O)CC4)nc3n2)c(O)c1 [Example 26, 2-{5-[(cis-4-hydroxycyclohexyl)amino]-2H-pyrazolo[3,4-d][1,3]thiazol-2-yl}-3,5-dimethylphenol]	830 nM	> 10000 nM
Cc1cc(C)c(-n2cc3sc(N[C@@H]4CCCN(C(=O)OCC(Cl)(Cl)Cl)C4)nc3n2)c(O)c1 [Example 27, 2,2,2-trichloroethyl (3R)-3-{[2-(2-hydroxy-4,6-dimethylphenyl)-2H-pyrazolo[3,4-d][1,3]thiazol-5-yl]amino}piperidine-1-carboxylate]	620 nM	6300 nM
Cc1cc(C)c(-n2cc3sc(NC4CCCC4O)nc3n2)c(O)c1 (stereo not shown) [Example 28, 2-{5-[(2-hydroxycyclopentyl)amino]-2H-pyrazolo[3,4-d][1,3]thiazol-2-yl}-3,5-dimethylphenol]	480 nM	> 10000 nM
Cc1cc(C)c(-n2cc3sc(NC4CCCC(O)C4)nc3n2)c(O)c1 (stereo not shown) [Example 29, 2-{5-[(3-hydroxycyclohexyl)amino]-2H-pyrazolo[3,4-d][1,3]thiazol-2-yl}-3,5-dimethylphenol]	540 nM	> 10000 nM
Cc1cc(C)c(-n2cc3sc(NC4CC5(CC(O)C5)C4)nc3n2)c(O)c1 (stereo not shown) [Example 30, 6-{[2-(2-hydroxy-4,6-dimethylphenyl)-2H-pyrazolo[3,4-d][1,3]thiazol-5-yl]amino}spiro[3.3]heptan-2-ol]	830 nM	> 10000 nM
Cc1cc(C)c(-n2cc3sc(N[C@H]4C[C@@](C)(O)C4)nc3n2)c(O)c1 [Example 31, 2-{5-[(cis-3-hydroxy-3-methylcyclobutyl)amino]-2H-pyrazolo[3,4-d][1,3]thiazol-2-yl}-3,5-dimethylphenyl]	650 nM	> 30000 nM
Cc1cc(C)c(-n2cc3sc(N[C@H]4C[C@](C)(O)C4)nc3n2)c(O)c1 [Example 32, 2-{5-[(trans-3-hydroxy-3-methylcyclobutyl)amino]-2H-pyrazolo[3,4-d][1,3]thiazol-2-yl}-3,5-dimethylphenol]	680 nM	> 10000 nM
Cc1cc(C)c(-n2cc3sc(N[C@@H]4C[C@H](C(F)F)CN(C)C4)nc3n2)c(O)c1 [Example 33, 2-(5-{[(3R,5S)-5-(difluoromethyl)-1-methylpiperidin-3-yl]amino}-2H-pyrazolo[3,4-d][1,3]thiazol-2-yl)-3,5-dimethylphenol]	1500 nM	> 10000 nM
Cc1cc(C)c(-n2cc3sc(NC[C@@H](C)O)nc3n2)c(O)c1 [Example 34, 2-(5-{[(2R)-2-hydroxypropyl]amino}-2H-pyrazolo [3,4-d][1,3]thiazol-2-yl)-3,5-dimethylphenol]	150 nM	> 10000 nM
Cc1cc(C)c(-n2cc3sc(N[C@@H]4CCCN(CC(F)F)C4)nc3n2)c(O)c1 [Example 35, 2-(5-{[(3R)-1-(2,2-difluoroethyl)piperidin-3-yl]amino}-2H-pyrazolo[3,4-d][1,3]thiazol-2-yl)-3,5-dimethylphenol]	68 nM	> 10000 nM
COCCN1CCC[C@@H](Nc2nc3nn(-c4c(C)cc(C)cc4O)cc3s2)C1 [Example 36, 2-(5-{[(3R)-1-(2-methoxyethyl)piperidin-3-yl]amino}-2H-pyrazolo[3,4-d][1,3]thiazol-2-yl)-3,5-dimethylphenol]	34 nM	> 30000 nM
